In patent US20190070165A1, “N-HYDROXYISOQUINOLINEDIONE INHIBITORS OF HBV REPLICATION” (Saint Louis University, priority 2016, published 2019):
Like-named read-outs stand apart in the source and are kept apart here.

Legend:
HBV replication [1] = test: HBV replication inhibition assay in HepDES19 cells (strand-preferential q-PCR); assay type: cell-based, Hepatitis B virus; conditions: Hepatitis B virus
Procedure: HBV replication assay. […] Cells were seeded into 6-well plates and incubated in DMEM/F12, 10% fetal bovine serum (FBS), 1% penicillin/streptomycin (P/S) with 1 μg/mL tetracycline. Tetracycline was withdrawn after 24 hours. The test compound was applied to duplicate wells 48 hours later in medium containing a final DMSO concentration of 1%, and medium containing the compound was refreshed daily for the following two days. Cells were harvested and non-encapsidated nucleic acids were digested with micrococcal nuclease (New England Biolabs). HBV DNA was purified from capsids using QIAamp Cador Pathogen Mini Kit (Qiagen) with proteinase K incubation overnight at 37° C. TaqMan PCR was performed for 40 cycles at an annealing temperature of 60° C.
Thirty-nine HID, HPD, flutimide, and related POH compounds (Structures shown in FIG. 3) were screened for their ability to inhibit HBV replication in HepDES19 cells. […] Inhibition was calculated as the amount of plus-polarity DNA relative to the DMSO treated controls.
Briefly, HepDES19 were seeded in 12-well plates at 2×10^5 cells per well in the absence of tetracycline. Test compound was applied to cells 48 hours after removal of tetracycline. […] HBV DNA was purified from capsids using a QIAamp pathogen minikit with proteinase K digestion extended to overnight at 37° C. TaqMan PCR was performed for 40 cycles with an annealing temperature of 60° C.

HSV-1 = HSV-1 replication inhibition assay in Vero cells; assay type: cell-based, herpes simplex virus 1; conditions: Human alphaherpesvirus 1, 24 h; 5 μM, Vero cells; read-out: HSV-1 suppression (log10 at 5 μM), class symbol
Procedure: Thirty-seven compounds were counter-screened for efficacy against HSV-1 to evaluate specificity of the inhibitors and to help determine if the efficacy against HBV replication may be due to an unsuspected indirect effect on the cells. Vero cells infected with HSV-1 at an MOI of 0.1 were treated with 5 μM of compound for 24 hours. Inhibition was calculated as log 10 suppression of plaque forming units compared with DMSO vehicle control.
Vero cells were maintained DMEM supplemented with 3% newborn calf serum, 3% bovine growth serum, 2 mM L-glutamine, and P/S. Test compounds were applied to the cells in the presence of 0.05% DMSO. The herpes simplex virus 1 (HSV-1) strain used for screening was a de-identified clinical isolate from the Saint Louis University Hospital passaged once in culture.
Compounds and virus were diluted in phosphate buffered saline (PBS) containing 2% newborn calf serum and 2 mM L-glutamine so that the final concentration of compound was 5 μM. The cells were incubated at 37° C. for 1 hour with the virus containing inoculum, then the inoculum was removed and the wells were washed once in PBS. Compound diluted to 5 μM in supplemented DMEM was added and cells were incubated at 37° C. for an additional 23 hours. The plates were then microscopically inspected for cytopathic effect (CPE) or toxicity and then frozen at −80° C. Virus titers for wells with limited CPE compared to DMSO vehicle-treated controls were then determined by plaque assay on Vero cells. Each experiment was repeated at least once.

[2] = system: patient-derived RNAseH enzymes; test: Biochemical RNAseH assay with variant patient-derived RNAseH enzymes; set-up: species or system Hepatitis B virus; conditions: compounds at their respective IC50 values, four genotype D enzymes
Procedure: HBV has 8 genotypes differing in sequence by 8%. Genetic diversity in the RNAseH domain is about 6%, which is easily high enough to modulate viral sensitivity to RNAseH inhibitors. […] Twelve purified, patient-derived RNAseH enzymes (4 from each genotypes B, C and D) were tested with the compounds at their respective IC50 values in a biochemical RNAseH assay. […] Equivalent results were obtained for all 12 enzymes against compounds #1 and #46. Therefore, HBV's high genetic variation is unlikely to present a substantial barrier to drug development.

HBV RNaseH [3] = target: T1, HBV RNaseH (Hepatitis B virus genotype D subtype ayw, UniProt P03156); conditions: Table 3, compounds at 100, 60 and 20 μM; compounds 1-91 and 138-140 previously reported (Cai et al., 2014)
Target sequence in this assay (P03156 671-832): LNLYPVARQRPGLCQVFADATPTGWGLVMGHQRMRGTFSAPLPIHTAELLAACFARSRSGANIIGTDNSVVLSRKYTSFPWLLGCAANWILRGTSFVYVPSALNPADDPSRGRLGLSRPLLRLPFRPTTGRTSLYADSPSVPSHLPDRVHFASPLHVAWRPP

HBV RNaseH [4] = target: T1, HBV RNaseH; test: Molecular beacon RNaseH assay; conditions: for Inhibition of HBV RNaseH, Molecular Beacon cleavage assay: Table 3, 0 to 500 μM
Target sequence in this assay (P03156 671-832): as above
Procedure: In this assay, a hairpin DNA oligonucleotide labeled with fluorescein on one end and a quencher on the other is held in a linear conformation by annealing to a complementary RNA; cleavage of the RNA causes the DNA to fold into a hairpin, suppressing fluorescence (FIG. 8A).
The substrate is a hairpin DNA oligonucleotide with a 5′ fluorescein reporter and a 3′ black hole quencher annealed to a complementary RNA oligonucleotide. The reaction was initiated by adding 5 mM Mg^++, and fluorescence was monitored at 37° C. with a Synergy 4 96-well plate reader. Inhibition was qualitatively determined as a dose-dependent reduction in the rate of substrate degradation.

HBV replication [5] = test: Chou-Talalay synergy analysis with Lamivudine against HBV replication; conditions: CI <1.0 indicates synergy
Procedure: Chou-Talaly analysis yields a combination index (CI). CI values <1.0 indicate synergy, CIs of approximately 1.0 indicate additive interactions, and CI values >1.0 indicate antagonism. CI values are calculated at various efficacy levels (EC50, EC75, EC90, and EC95), and a weighted CI value favoring higher efficacy levels is also generated.

human RNaseH1 = target: T2, human RNaseH1 (Homo sapiens, UniProt O60930); test: Oligonucleotide-directed RNA cleavage assay, human RNaseH1; assay type: biochemical; conditions: Table 1, qualitative inhibition
T2 construct: made in house; host or cells: E. coli
T2 sequence (O60930 1-286): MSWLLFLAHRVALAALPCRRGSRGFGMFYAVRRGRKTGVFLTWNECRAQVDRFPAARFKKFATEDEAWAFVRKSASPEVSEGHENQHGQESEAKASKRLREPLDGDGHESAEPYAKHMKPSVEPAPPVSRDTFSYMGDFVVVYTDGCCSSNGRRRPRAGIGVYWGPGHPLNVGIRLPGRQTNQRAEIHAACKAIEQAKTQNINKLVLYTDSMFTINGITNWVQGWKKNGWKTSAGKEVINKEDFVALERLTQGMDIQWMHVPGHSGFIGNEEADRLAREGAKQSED
From the text: RNaseH expression and purification.
Oligonucleotide-directed RNA cleavage assay.

MTT cytotoxicity assay = assay type: cell-based; conditions: human; Table 2, HepDES19 cells
Procedure: MTT cytotoxicity assays. 1.0×10^4 HepDES19 cells per well were seeded in 96-well plates and incubated in DMEM with 10% FBS plus 1% P/S, 1% non-essential amino acids, and 1% glutamine. Compounds were diluted in medium to the indicated concentrations plus 1% DMSO and added to cells 24 hours after plating, with each concentration tested in triplicate. Medium containing the compound was refreshed daily for the next two days. Thiazolyl blue tetrazolium bromide (MTT, Sigma-Aldrich) was added to 0.25 mg/mL, the cultures were incubated for 60 minutes, metabolites were solubilized in acidic isopropanol, and absorbance was read at 570 nm.

[6] = MTS cytotoxicity assay (CellTiter 96); conditions: human
Procedure: (§1) HepDES19 cells were seeded at 1×10^4 cells per well in a 96 well plate in the absence of tetracycline. The test compounds were applied in triplicate to the cells 48 hours later and the cells were incubated for 72 hours. Cell viability was measured using the CellTiter 96 Aqueous Non-Radioactive Cell Proliferation Assay (Promega). [3-(4,5-dimethylthiazol-2-yl)-5-(3-carboxymethoxyphenyl)-2-(4-sulfophenyl)-2H-tetrazolium, inner salt] (MTS) and phenazine methosulfate (PMS) solution at 2 mg/mL MTS and 0.043 mg/mL PMS were added to the medium, the cells were incubated for two hours at 37° C., and absorbance was measured at 490 nm. […] Neutral red was added to the media at a final concentration of 40 μg/mL. Cells were washed with PBS and incubated with neutral red medium for two hours at 37° C. The neutral red medium was removed and the cells were washed with PBS. […] Lactate dehydrogenase (LDH) release was measured using the LDH-cytotoxicity colorimetric assay kit (BioVision). Cells were lysed with 1% Triton-X to provide the high control and DMSO vehicle treatment was the low control. Supernatants were collected and transferred to a fresh 96 well plate, and LDH reaction mixture containing the catalyst and dye solution was added. The reaction was incubated for 15-20 minutes at room temperature in a dark box and absorbance was measured at 490 nm. Percent cytotoxicity was calculated as [(test sample−low control)/([…])]×100.

HepDES19 cells = test: MTS cytotoxicity assay (CellTiter 96); conditions: CC50 by MTS assay over EC50
Procedure: as §1

[7] = Neutral red (NR) cytotoxicity assay; assay type: cell-based; conditions: human, HepDES19 cells, read-out: Toxicity in HepDES19, NR (CC50)
Procedure: (§2) To further evaluate potential cytotoxicity of these hits, the effect of the compounds was determined for the uptake of neutral red (NR) by the lysosomes and lactate dehydrogenase (LDH) release into the supernatant due to cell membrane permeability. […] Overall, the TI values in Table 3 and FIG. 4 indicate that cytotoxicity was not the cause of antiviral efficacy, although it may have contributed to the apparent efficacy for #84, 85, 90, and 91, which all have TI values below 5.

[8] = Lactate dehydrogenase (LDH) release cytotoxicity assay; assay type: cell-based; conditions: human, HepDES19 cells, read-out: Toxicity in HepDES19, LDH (CC50)
Procedure: as §2

HBV RNaseH [9] = target: T1, HBV RNaseH; test: Detection of capsid-associated RNA:DNA heteroduplexes by Southern analysis; assay type: cell-based; set-up: expressed in transfected cells; host or cells: HepDES19 (HepG2 with a stably transfected HBV genotype D genome); conditions: HepDES19 cells, seven days; #89 at 4×EC50 (10.4 μM), #138 at 30 μM
Procedure: RNA:DNA heteroduplexes migrate as double-stranded products, but degradation of the RNA strand with exogenous RNase causes the DNAs to migrate as single-stranded species. To test for accumulation of RNA:DNA heteroduplexes, HepDES19 cells replicating HBV were treated with 4×EC50 (10.4 μM) of compound #89 and 30 μM compound #138 (negative control). HBV cores were harvested after seven days of compound treatment. Capsid-associated nucleic acids were purified and split into two pools; one pool was treated with RNaseA and the other pool was mock treated.
HepDES19 cells were plated in 100 mm dishes without tetracycline and incubated for 72 hours in the absence of tetracycline before addition of compound #89 at 4×EC50 (10.4 μM) and the negative control compound #138 at 30 μM; compound-containing media was replaced every three days. HBV nucleic acids were purified seven days after compound addition. HBV core particles were isolated by sedimentation through a sucrose cushion as described (Tavis et al., 1998). Cores were treated overnight with proteinase K (0.5 mg/mL) and 1.5% SDS at 37° C. Nucleic acids were purified by phenol-chloroform extraction and ethanol precipitation. The nucleic acids were split into two pools. One pool was treated with RNaseA (1.5 μg/μL) at 37° C. for 30 minutes and the other was mock-treated. […]
Target sequence in this assay (P03156 whole entry): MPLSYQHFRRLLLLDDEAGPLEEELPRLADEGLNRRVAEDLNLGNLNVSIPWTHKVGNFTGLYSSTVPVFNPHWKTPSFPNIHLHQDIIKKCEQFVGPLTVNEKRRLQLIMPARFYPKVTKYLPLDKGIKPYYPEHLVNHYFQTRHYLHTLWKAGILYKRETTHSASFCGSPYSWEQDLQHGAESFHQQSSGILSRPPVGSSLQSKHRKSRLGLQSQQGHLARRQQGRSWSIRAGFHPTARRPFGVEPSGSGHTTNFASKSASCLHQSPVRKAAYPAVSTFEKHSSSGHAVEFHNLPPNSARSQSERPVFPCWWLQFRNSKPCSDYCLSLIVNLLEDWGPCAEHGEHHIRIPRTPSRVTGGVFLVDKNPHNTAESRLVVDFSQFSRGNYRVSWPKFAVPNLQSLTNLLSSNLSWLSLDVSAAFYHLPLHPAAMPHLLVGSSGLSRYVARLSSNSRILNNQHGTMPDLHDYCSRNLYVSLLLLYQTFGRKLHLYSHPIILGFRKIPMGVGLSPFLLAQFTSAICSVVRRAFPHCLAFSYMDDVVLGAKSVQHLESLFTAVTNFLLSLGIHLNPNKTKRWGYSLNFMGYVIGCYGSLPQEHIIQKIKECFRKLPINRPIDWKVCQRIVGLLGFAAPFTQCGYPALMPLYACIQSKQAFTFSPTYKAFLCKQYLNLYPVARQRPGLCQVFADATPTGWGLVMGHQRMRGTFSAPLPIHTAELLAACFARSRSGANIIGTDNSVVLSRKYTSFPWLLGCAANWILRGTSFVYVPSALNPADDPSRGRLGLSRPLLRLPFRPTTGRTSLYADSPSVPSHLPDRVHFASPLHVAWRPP

[10] = HepDES19, read-out: HBV replication inhibition (EC50, μm)

O=C1Cc2ccccc2C(=O)N1O [Compound 1, 2-hydroxyisoquinoline-1,3(2H,4H)-dione]
EC50 (HBV replication [1]; [10]): 4.2 ± 1.4 µM | log reduction at 5 µM (HSV-1): < 1 | inhibition of variant genotype D RNAseH enzymes [2]: about 50% | Inhibition of HBV RNaseH, Oligonucleotide directed cleavage assay (HBV RNaseH [3]): + (Dose-dependent inhibition at ≤100 μM) | inhibition in the molecular beacon assay (HBV RNaseH [4]; 2.1 μg purified HBV RNaseH): inhibited | Inhibition of HBV RNaseH, Molecular Beacon cleavage assay (HBV RNaseH [4]): + (Dose-dependent inhibition at ≤500 μM) | weighted combination index (CI) with Lamivudine (HBV replication [5]): 0.70±0.1

CC(C)c1ccc(O)c(=O)c(O)c1 [Compound 46, β-thujaplicinol, reference compound]
inhibition of variant genotype D RNAseH enzymes [2]: about 50% | weighted combination index (CI) with Lamivudine (HBV replication [5]): 0.44±0.3

O=C(NCc1ccc(F)cc1)C1C(=O)N(O)C(=O)c2cc(Cl)ccc21 (stereo not drawn) [Compound 87]
Human RNaseH1 (human RNaseH1): +++ (detectable inhibition at 10 μM) | EC50 (HBV replication [1]; [10]): 4.5 ± 3.7 µM | EC50 (HBV replication [1]; Table 2, HepDES19 cells, read-out: EC50): 1.6 µM | CC50 (MTT cytotoxicity assay): 37 µM | CC50 at 72 h [6]: 37 ± 17 µM | TI (therapeutic index, CC50(MTS)/EC50) (HepDES19 cells): 8.2 | CC50 at 72 h [7]: 24 ± 1 µM | CC50 at 72 h [8]: 52 ± 15 µM | log reduction at 5 µM (HSV-1): < 1 | Inhibition of HBV RNaseH, Oligonucleotide directed cleavage assay (HBV RNaseH [3]): − (No inhibition detected at 100 μM) | Inhibition of HBV RNaseH, Molecular Beacon cleavage assay (HBV RNaseH [4]): − (No inhibition detected at 500 μM)

COc1ccc2c(c1)C(=O)N(O)C(=O)C2C(=O)NCc1ccc(F)cc1 (stereo not drawn) [Compound 88]
Human RNaseH1 (human RNaseH1): +++ (detectable inhibition at 10 μM) | EC50 (HBV replication [1]; [10]): 2.5 ± 0.5 µM | CC50 (MTT cytotoxicity assay): 40 µM | CC50 at 72 h [6]: 40 ± 6 µM | TI (therapeutic index, CC50(MTS)/EC50) (HepDES19 cells): 16 | CC50 at 72 h [7]: 26 ± 2 µM | CC50 at 72 h [8]: 57 ± 6 µM | log reduction at 5 µM (HSV-1): < 1 | Inhibition of HBV RNaseH, Oligonucleotide directed cleavage assay (HBV RNaseH [3]): − (No inhibition detected at 100 μM) | Inhibition of HBV RNaseH, Molecular Beacon cleavage assay (HBV RNaseH [4]): − (No inhibition detected at 500 μM)

COc1ccc(CNC(=O)C2C(=O)N(O)C(=O)c3cc([N+](=O)[O-])ccc32)cc1 (stereo not drawn) [Compound 89]
Human RNaseH1 (human RNaseH1): ++ (detectable inhibition at 20 μM) | EC50 (HBV replication [1]; [10]): 2.6 ± 0.8 µM | log reduction at 5 µM (HSV-1): < 1 | Inhibition of HBV RNaseH, Oligonucleotide directed cleavage assay (HBV RNaseH [3]): − (No inhibition detected at 100 μM) | Inhibition of HBV RNaseH, Molecular Beacon cleavage assay (HBV RNaseH [4]): − (No inhibition detected at 500 μM) | accumulation of RNA:DNA heteroduplexes (HBV RNaseH [9]): caused RNA:DNA heteroduplexes to accumulate
